Measured values from US10716827B2 (priority 2015, dated 2020).

Biological target: GLP-1R (Homo sapiens, UniProt P43220)
Sequence (P43220 24-463, species assumed): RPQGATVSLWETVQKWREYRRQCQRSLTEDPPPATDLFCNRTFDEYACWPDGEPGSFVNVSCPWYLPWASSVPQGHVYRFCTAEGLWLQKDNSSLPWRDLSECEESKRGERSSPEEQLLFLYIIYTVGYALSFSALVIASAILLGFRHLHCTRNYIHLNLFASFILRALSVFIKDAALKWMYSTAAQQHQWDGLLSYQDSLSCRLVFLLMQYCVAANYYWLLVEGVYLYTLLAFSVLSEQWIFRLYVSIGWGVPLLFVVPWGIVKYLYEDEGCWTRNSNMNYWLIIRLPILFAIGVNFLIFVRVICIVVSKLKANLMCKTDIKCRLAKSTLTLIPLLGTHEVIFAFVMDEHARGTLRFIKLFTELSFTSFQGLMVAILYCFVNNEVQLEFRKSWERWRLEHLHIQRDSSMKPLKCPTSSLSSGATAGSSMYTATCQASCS

HGEGTFTSDLS(Kazido)QMEEEAVRLFIENWLKNGGPSSGAPSSGAPPPS [compound 1]
% Change in FRET at 100 nM (100 nM, undigested): −12 ± 0.01%
potency compared to unmodified Ex-4 (azido modification at K12): no significant reduction in potency
